One experiment concerns HSV-tk positive RDFs. The experiment in a line: In vitro sensitivity to ganciclovir (XTT assay), HSV-tk positive RDFs. The settings on record: Oryctolagus cuniculus, 72 hr of incubation, read-out: IC50 (concentration required for 50% cytotoxicity). It is filed as cell-based, rabbit. Here is the method: (§1) The sensitivity of HSV-tk positive RDFs (100% HSV-tk transduced RDFs) and HSV-tk negative RDFs to ganciclovir was determined by using a tetrazolium-based calorimetric assay (XTT assay) (Scudiero et al., Cancer Research, Vol. 48, pgs. 4827-4833 (1988); Roehm et al., J. Immunol. Methods, Vol. 142, pgs. 257-265 (1991)). HSV-tk positive RDFs and HSV-tk negative RDFs were seeded at a density of 5×10^3 cells/well of 96-well culture plates (Corning) and incubated with DMEM-10 at 37° C. in 5% CO2 overnight. Then cells were treated with DMEM-10 containing various concentrations of ganciclovir (GCV; Cytovene; Syntex Inc., Palo Alto, Calif.) or only DMEM-10. After a total of 72 hr incubation, XTT assay was performed using a kit (cell proliferation II; Boehringer Mannheim, Indianapolis, Ind.). The results were read on a microplate reader (MR700; Dynatech Laboratories, Inc., Chantilly, Va.).
Background: Formazan colour is commonly taken as a measure of viable cells.

Another experiment deals with HSV-tk negative RDFs. In words: In vitro sensitivity to ganciclovir (XTT assay), HSV-tk negative RDFs. The settings on record: concentration range 0.001-50 μg/ml. The class given is cell-based, rabbit. Here is the method:
as §1

Experiment [1] deals with mixtures of HSV-tk-positive and -negative RDFs. In words: In vitro bystander effect, cocultures of HSV-tk positive and negative cells. The class given is cell-based, rabbit. The conditions noted are these: 1 μg/ml ganciclovir; 3 days of incubation; effect depended on percentage of HSV-tk positive cells. As for the experimental part:
To determine the cytotoxic effect of a small number of HSV-tk positive cells on neighboring HSV-tk-negative cells, cocultures of HSV-tk positive cells and HSV-tk-negative cells were performed by mixing these two cells in varying proportions. Briefly, mixtures of HSV-tk-positive and -negative RDFs (2.0×10^4 cells/well) were seeded at various mixing ratios (0, 1.0, 2.5, 5.0, 10, and 100% HSV-tk-positive cells of total cells) in 24-well culture plates (Corning) and incubated at 37° C. in 5% CO2 overnight. Cells were then treated with 1 μg/ml ganciclovir for 3, 5, and 7 days. The number of cells was counted with a Coulter counter (Coulter Electronics, Inc., Hialeah, Fla.).

For experiment [2], the system named is experimental proliferative vitreoretinopathy (HSV-tk positive/negative RDFs). The experiment in a line: In vivo bystander effect in experimental proliferative vitreoretinopathy. Also on record: species or system pigmented rabbits. Here is the method:
The right eye was used from each of 20 pigmented rabbits of both sexes, weighing 2.5 to 3.5 kg each. Vitrectomy was performed in the same manner as described above. One week after vitrectomy, group D (n=7) received an injection into the vitreous cavity of a mixture of 0.25×10^4 homologous HSV-tk positive RDFs (5% of total cells) and 4.75×10^4 homologous HSV-tk negative RDFs (95% of total cells). Group E (n=7) received a mixture of 0.05×10^4 homologous HSV-tk positive RDFs […] HSV-tk negative RDFs (95% of total cells). Group F (n=6) received 5.0×10^4 homologous HSV-tk negative RDFs as a control. All eyes received 200 μg of ganciclovir (0.1 ml of solution dissolved in distilled water) just after the cell injection and on day 4. Indirect ophthalmoscopic examinations were performed in a masked fashion on days 4, 7, 14 and 28. Clinical severity of PVR was graded from 0 to 5 as described above.

Experiment [3] relates to fibroblasts bearing the HSV-TK gene. The settings on record: rabbits; intraocular injection of fibroblasts bearing the HSV-TK gene; cited from earlier work.

Values after ≈ are worked out from the molar mass of the structure shown.

For `Nc1nc(O)c2ncn(COC(CO)CO)c2n1` [ganciclovir], the IC50 in the experiment on HSV-tk positive RDFs turned out to be 0.1 µg/mL (≈ 0.392 µM). Besides, in the experiment on HSV-tk negative RDFs, the “Toxicity to HSV-tk negative RDFs” value is on record as “no significant toxicity”. Further, in experiment [1], the “Proliferation of co-culturing cells” value is given as “inhibited proliferation of co-culturing cells”. The “Retinal detachment (stages 3-5)” value in experiment [2] (group D (5% HSV-tk positive RDFs), 200 μg ganciclovir intravitreal after cell injection and day 4, day 4 and day 7) is “no retinal detachment”; in experiment [2] (group D (5% HSV-tk positive RDFs), 200 μg ganciclovir, day 14 and day 28), “No eyes showed retinal detachment”; in experiment [2] (group E (1% HSV-tk positive RDFs), 200 μg ganciclovir, day 4 and day 7), “no retinal detachment”. For the same molecule, the “Eyes with retinal detachment (stages 3-5)” value in experiment [2] (group E (1% HSV-tk positive RDFs), 200 μg ganciclovir, day 14 and day 28) came out at 14.3%; in experiment [2] (group F (100% HSV-tk negative RDFs), 200 μg ganciclovir, day 4), 16.7%; in experiment [2] (group F (100% HSV-tk negative RDFs), 200 μg ganciclovir, day 7), 50%; in experiment [2] (group F (100% HSV-tk negative RDFs), 200 μg ganciclovir, day 14 and day 28) it was 66.7%. Besides, the “Experimental PVR” value in experiment [3] is recorded as “inhibited”.

The values are drawn from patent US6869935B2, “Gene Therapy for proliferative vitreoretinopathy” (priority 1996, dated 2005).
